This passage reports pest or weed control and inhibition of growth results from patent US11192867B2, “Microbiocidal oxadiazole derivatives” (SYNGENTA PARTICIPATIONS AG, priority 2016, dated 2021).

In assay [1] the test system is Puccinia recondita f. sp. Tritici. Briefly: Fungicidal activity against Puccinia recondita f. sp. Tritici / wheat / leaf disc curative (brown rust). The assay is classed as in vivo. The following applies: foliar, 24 h, 200 ppm in the applied formulation, wheat leaf segments cv. Kanzler, applied 1 day after inoculation, vs untreated control, read-out: disease control. As for the experimental part:
(§1) Leaf disks or leaf segments of various plant species are cut from plants grown in a greenhouse. The cut leaf disks or segments are placed in multiwell plates (24-well format) onto water agar. The leaf disks are sprayed with a test solution before (preventative) or after (curative) inoculation. Compounds to be tested are prepared as DMSO solutions (max. 10 mg/ml) which are diluted to the appropriate concentration with 0.025% Tween20 just before spraying. The inoculated leaf disks or segments are incubated under defined conditions (temperature, relative humidity, light, etc.) according to the respective test system. A single evaluation of disease level is carried out 3 to 14 days after inoculation, depending on the pathosystem. Percent disease control relative to the untreated check leaf disks or segments is then calculated.
Wheat leaf segments cv. Kanzler are placed on agar in multiwell plates (24-well format). The leaf segments are then inoculated with a spore suspension of the fungus. Plates were stored in darkness at 19° C. and 75% relative humidity. The formulated test compound diluted in water was applied 1 day after inoculation. The leaf segments were incubated at 19° C. and 75% relative humidity under a light regime of 12 hours light/12 hours darkness in a climate cabinet and the activity of a compound was assessed as percent disease control compared to untreated when an appropriate level of disease damage appears in untreated check leaf segments (6 to 8 days after application).
The following compounds at 200 ppm in the applied formulation give at least 80% disease control in this test when compared to untreated control leaf disks under the same conditions, which show extensive disease development.

For assay [2], the system named is Glomerella lagenarium (Colletotrichum lagenarium). As to the kind of experiment: Fungicidal activity against Glomerella lagenarium (Colletotrichum lagenarium) liquid culture / cucumber / preventative (anthracnose). The assay is classed as cell-based. As to conditions: Colletotrichum orbiculare, 72 h; 20 ppm in the applied formulation; liquid culture (PDB), growth inhibition measured photometrically 3 to 4 days after application; vs untreated control; read-out: disease control. In a few lines:
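Photometric read-out of fungal growth 3 to 4 days after application, expressed as percent control relative to untreated wells. Plates held at 24 °C. Compound placed in DMSO before adding PDB broth seeded with conidia from cryogenic storage.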

For a further assay, the system named is Phakopsora pachyrhizi. As to the kind of experiment: Fungicidal activity against Phakopsora pachyrhizi / soybean / leaf disc preventative (Asian soybean rust). The assay is classed as in vivo. The following applies: foliar, 200 ppm in the applied formulation, soybean leaf disks, vs untreated control, read-out: disease control. The method in brief:
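Preventative test: compound sprayed onto soybean leaf discs one day before spore inoculation of the lower leaf face. Incubation at 20 °C and 75% rh, first 24-36 h in darkness, then a 12 h light cycle. Disease control versus untreated discs read 12-14 days after application.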

Assay [3] deals with Puccinia recondita f. sp. Tritici. Briefly: Fungicidal activity against Puccinia recondita f. sp. Tritici / wheat / leaf disc preventative (brown rust). The assay is classed as in vivo. As to conditions: foliar, 200 ppm in the applied formulation, wheat leaf segments cv. Kanzler, inoculated 1 day after application, vs untreated control, read-out: disease control. As to the method:
as §1, with “calculated. Wheat leaf segments cv. Kanzler were placed on agar in multiwell plates (24-well format) and sprayed with the formulated test compound diluted in water. The leaf disks were inoculated with a spore suspension of the fungus 1 day after application. The inoculated leaf segments were incubated at 19° C. and 75% relative humidity (rh) under a light regime of 12 hours light/12 hours darkness in a climate cabinet and the activity of a compound was assessed as percent disease control compared to untreated when an appropriate level of disease damage appears in untreated check leaf segments (7 to 9 days after application). The following compounds at 200 ppm in the applied formulation give at least 80% disease control in this test when compared to untreated control leaf disks under the same conditions, which show extensive disease development.” for “calculated.”

A value given as a limit tells only on which side of the number the result lay.

Regarding `CON=CC(C)(C)NC(=O)c1ccc(-c2noc(C(F)(F)F)n2)cc1` [Compound 1.1, N-(2-methoxyimino-1,1-dimethyl-ethyl)-4-[5-(trifluoromethyl)-1,2,4-oxadiazol-3-yl]benzamide], the pest or weed control at 200 ppm in assay [1] is no less than 80%. Besides, the inhibition of growth at 20 ppm in assay [2] was no less than 80%.

As to `COc1ccc(CON=CC(C)NC(=O)c2ccc(-c3noc(C(F)(F)F)n3)cc2)cc1` (stereo not shown) [Compound 1.19, N-[2-[(4-methoxyphenyl)methoxyimino]-1-methyl-ethyl]-4-[5-(trifluoromethyl)-1,2,4-oxadiazol-3-yl]benzamide], the pest or weed control at 200 ppm (with Phakopsora pachyrhizi; in assay [1]) was no less than 80% each time.

As for `CC(CNC(=O)c1ccc(-c2noc(C(F)(F)F)n2)cc1)=NO[C@H](C)C(=O)O` [Compound 1.117, (2R)-2-[[1-methyl-2-[[4-[5-(trifluoromethyl)-1,2,4-oxadiazol-3-yl]benzoyl]amino]ethylidene]amino] oxypropanoic acid], the pest or weed control at 200 ppm in assay [3] and in assay [1] was no less than 80% each time. In addition, the inhibition of growth at 20 ppm in assay [2] is no less than 80%.

On to `O=C(NCC=NOCc1ccccc1F)c1ccc(-c2noc(C(F)(F)F)n2)cc1` [Compound 1.69, N-[2-[(2-fluorophenyl)methoxyimino]ethyl]-4-[5-(trifluoromethyl)-1,2,4-oxadiazol-3-yl]benzamide], for which the pest or weed control at 200 ppm (in the assay on Phakopsora pachyrhizi; in assay [3]) was no less than 80% each time. Also, the inhibition of growth at 20 ppm in assay [2] is no less than 80%.

In the case of `C=C(Cl)CON=CC(C)NC(=O)c1ccc(-c2noc(C(F)(F)F)n2)cc1` (stereo not shown) [Compound 1.56, N-[2-(2-chloroallyloxy-imino)-1-methyl-ethyl]-4-[5-(trifluoromethyl)-1,2,4-oxadiazol-3-yl]benzamide], the pest or weed control at 200 ppm (in the assay with Phakopsora pachyrhizi; in assay [3]) was no less than 80% throughout. Also, in assay [2], the inhibition of growth at 20 ppm was no less than 80%.

As to `CC(CNC(=O)c1ccc(-c2noc(C(F)(F)F)n2)cc1)=NOC(C)C(=O)O` (stereo not shown) [Compound 1.125, 2-[[1-methyl-2-[[4-[5-(trifluoromethyl)-1,2,4-oxadiazol-3-yl]benzoyl]amino]ethylidene]amino] oxypropanoic acid], the pest or weed control at 200 ppm in assay [3] and in assay [1] was no less than 80% in each case. Further, in assay [2], the inhibition of growth at 20 ppm is no less than 80%.

Regarding `O=C(NCC=NOCc1ccccc1)c1ccc(-c2noc(C(F)(F)F)n2)cc1` [Compound 1.90, N-(2-benzyloxyimino-ethyl)-4-[5-(trifluoromethyl)-1,2,4-oxadiazol-3-yl]benzamide], the pest or weed control at 200 ppm (in the assay on Phakopsora pachyrhizi; in assay [3]) was no less than 80% throughout. For the same molecule, the inhibition of growth at 20 ppm in assay [2] was no less than 80%.

In the case of `CC(C=NO[C@@H](C)C(=O)O)NC(=O)c1ccc(-c2noc(C(F)(F)F)n2)cc1` (stereo partly drawn) [Compound 1.32, (2S)-2-[2-[[4-[5-(trifluoromethyl)-1,2,4-oxadiazol-3-yl]benzoyl]amino]propylideneamino] oxypropanoic acid], the pest or weed control at 200 ppm in assay [3] and in assay [1] was no less than 80% in each case. The inhibition of growth at 20 ppm in assay [2] was no less than 80%.

In the case of `CC(C)=CCON=CCNC(=O)c1ccc(-c2noc(C(F)(F)F)n2)cc1` [Compound 1.80, N-[2-(3-methylbut-2-enoxyimino)ethyl]-4-[5-(trifluoromethyl)-1,2,4-oxadiazol-3-yl]benzamide], the pest or weed control at 200 ppm (in the assay with Phakopsora pachyrhizi; in assay [3]) was no less than 80% throughout. In addition, the inhibition of growth at 20 ppm in assay [2] was no less than 80%.

For `Cc1ccc(CON=CC(C)NC(=O)c2ccc(-c3noc(C(F)(F)F)n3)cc2)cc1` (stereo not shown) [Compound 1.18, N-[1-methyl-2-(p-tolylmethoxyimino)ethyl]-4-[5-(trifluoromethyl)-1,2,4-oxadiazol-3-yl]benzamide], the pest or weed control at 200 ppm in assay [1] is no less than 80%.

For the molecule `C[C@H](ON=CCNC(=O)c1ccc(-c2noc(C(F)(F)F)n2)cc1)C(=O)O` [Compound 1.77, (2S)-2-[2-[[4-[5-(trifluoromethyl)-1,2,4-oxadiazol-3-yl]benzoyl]amino]ethylideneamino] oxypropanoic acid], the pest or weed control at 200 ppm in assay [3] and in assay [1] was no less than 80% throughout. In assay [2], the inhibition of growth at 20 ppm was no less than 80%.

For `CC(C=NOCc1ccc([N+](=O)[O-])cc1)NC(=O)c1ccc(-c2noc(C(F)(F)F)n2)cc1` (stereo not shown) [Compound 1.16, N-[1-methyl-2-[(4-nitrophenyl)methoxyimino]ethyl]-4-[5-(trifluoromethyl)-1,2,4-oxadiazol-3-yl]benzamide], the pest or weed control at 200 ppm (with Phakopsora pachyrhizi; in assay [1]) was no less than 80% throughout.

Turning to `CC(CNC(=O)c1ccc(-c2noc(C(F)(F)F)n2)cc1)=NOC/C=C\Cl` [Compound 1.124, N-[2-[(Z)-3-chloroallyloxy]iminopropyl]-4-[5-(trifluoromethyl)-1,2,4-oxadiazol-3-yl]benzamide], the pest or weed control at 200 ppm (in the assay on Phakopsora pachyrhizi; in assay [3]) was no less than 80% throughout. Also, the inhibition of growth at 20 ppm in assay [2] is no less than 80%.

Take `CON=CC(C)(C)NC(=O)c1ccc(-c2noc(C(F)(F)F)n2)cc1F` [Compound 1.2, 2-fluoro-N-(2-methoxyimino-1,1-dimethyl-ethyl)-4-[5-(trifluoromethyl)-1,2,4-oxadiazol-3-yl]benzamide]: the pest or weed control at 200 ppm (in the assay on Phakopsora pachyrhizi; in assay [1]) was no less than 80% in each case. The inhibition of growth at 20 ppm in assay [2] is no less than 80%.

In the case of `O=C(NCC=NOCc1ccc(F)cc1Cl)c1ccc(-c2noc(C(F)(F)F)n2)cc1` [Compound 1.71, N-[2-[(2-chloro-4-fluoro-phenyl)methoxy-imino]ethyl]-4-[5-(trifluoromethyl)-1,2,4-oxadiazol-3-yl]benzamide], the pest or weed control at 200 ppm (with Phakopsora pachyrhizi; in assay [3]) was no less than 80% throughout. Further, the inhibition of growth at 20 ppm in assay [2] was no less than 80%.

Turning to `CC(C=NOC(C)(C)C)NC(=O)c1ccc(-c2noc(C(F)(F)F)n2)cc1` (stereo not shown) [Compound 1.45, N-(2-tert-butoxyimino-1-methyl-ethyl)-4-[5-(trifluoromethyl)-1,2,4-oxadiazol-3-yl]benzamide], the pest or weed control at 200 ppm (with Phakopsora pachyrhizi; in assay [3]) was no less than 80% throughout. In addition, the inhibition of growth at 20 ppm in assay [2] is no less than 80%.

With `O=C(O)CON=CCNC(=O)c1ccc(-c2noc(C(F)(F)F)n2)cc1` [Compound 1.65, 2-[2-[[4-[5-(trifluoromethyl)-1,2,4-oxadiazol-3-yl]benzoyl]amino]ethylideneamino] oxyacetic acid], the pest or weed control at 200 ppm (in the assay on Phakopsora pachyrhizi; in assay [3]) was no less than 80% in each case. For the same molecule, the inhibition of growth at 20 ppm in assay [2] is no less than 80%.

As for `COc1cccc(CON=CC(C)NC(=O)c2ccc(-c3noc(C(F)(F)F)n3)cc2)c1` (stereo not shown) [Compound 1.17, N-[2-[(3-methoxyphenyl)methoxyimino]-1-methyl-ethyl]-4-[5-(trifluoromethyl)-1,2,4-oxadiazol-3-yl]benzamide], the pest or weed control at 200 ppm (in the assay with Phakopsora pachyrhizi; in assay [1]) was no less than 80% each time. The inhibition of growth at 20 ppm in assay [2] is no less than 80%.

On to `CC(C=NOC(C)C)NC(=O)c1ccc(-c2noc(C(F)(F)F)n2)cc1` (stereo not shown) [Compound 1.50, N-(2-isopropoxyimino-1-methyl-ethyl)-4-[5-(trifluoromethyl)-1,2,4-oxadiazol-3-yl]benzamide], for which the pest or weed control at 200 ppm (in the assay on Phakopsora pachyrhizi; in assay [3]) was no less than 80% throughout. For the same molecule, the inhibition of growth at 20 ppm in assay [2] is no less than 80%.
